The subject of test [1] is male ICR mouse. Kind of test: Acetic acid-induced writhing test in mouse. The format is in vivo. The note with it: po, p.o, acetic acid i.p. 1 hour after dosing, writhing counted for 10 minutes, read-out: Writhing Test Suppression of pain response. As to the method:
An acetic acid-induced writhing test is one of models for measuring an analgesic effect of drugs. A test material dissolved in a suitable vehicle was orally administered to a male ICR mouse weighing 30 to 35 g at an amount of 10 mg/kg. After 1 hour of the oral administration, […] of an aqueous 0.8% acetic acid solution was intraperitoneally injected into the male ICR mouse to induce the abdominal pain of the male ICR mouse. Right after the administration of acetic acid, the male ICR mouse was put into an empty cage, and the number of writhing behaviors of the mice was counted for 10 minutes. The term “writhing” represents a reflex action in which the mouse overtly extends its abdomen by stretching its hind legs due to the abdominal pain. The analgesic effect of the test material is represented by the ‘suppression of pain response’ {[(Writhing number of vehicle-administered group−Writhing number of Test material—administered group)/(Writhing number of Solvent-administered group)]×100%}.
In general terms: Writhing tests count abdominal constrictions after an irritant is injected.

Test [2] concerns male ICR mouse. Briefly: Hot plate test in mouse. To be noted: po, p.o, 1 hour after dosing, hot plate 55° C., read-out: Hot Plate Test Increase in latency of avoidance response. The format is in vivo. As for the experimental part: A hot plate test is one of representative models for measuring an analgesic effect of drugs. A test material dissolved in a suitable vehicle was orally administered to a male ICR mouse weighing 25 to 30 g at an amount of 30 mg/kg. After 1 hour of the oral administration, the mouse was put on a hot plate (55° C.). A latency was recorded from the time right after a mouse is put on a hot plate to the time when avoidance responses (flinching, licking, jumping, etc.) to pain are observed from forefeet or rear legs of the mouse. The analgesic effect of the test material is represented by the ‘Increase in latency of avoidance response’ {[(Latency of avoidance response to pain of Test material-administered group−Latency of avoidance response to pain of vehicle-administered group)/(Latency of avoidance response to pain of Solvent-administered group)]×100%}.

Turning to `COc1ccc(N2CCN(C(=O)CC(OC(N)=O)c3ccccc3)CC2)cc1` (centres unmarked) [Example 2, carbamic acid 3-[4-(4-methoxy-phenyl)-piperazin-1-yl]-3-oxo-1-phenyl-propyl ester], the inhibition in vivo at 10 mg/kg in the test on male ICR mouse [1] was 54.6%. Moreover, the change in vivo at 30 mg/kg in the test with male ICR mouse [2] worked out at 37.5%.

With `COc1ccc(N2CCN(C(=O)CC(OC(N)=O)c3ccccc3)CC2)cc1OC` (centres unmarked) [Example 5, carbamic acid 3-[4-(3,4-dimethoxy-phenyl)-piperazin-1-yl]-3-oxo-1-phenyl-propyl ester], the inhibition in vivo at 10 mg/kg with male ICR mouse [1] was determined as 79.7%. The change in vivo at 30 mg/kg with male ICR mouse [2] was 39.2%.

`COc1ccc(N2CCN(C(=O)CC(OC(N)=O)c3ccc(Cl)cc3)CC2)cc1OC` (centres unmarked) [Example 6, carbamic acid 1-(4-chloro-phenyl)-3-[4-(3,4-dimethoxy-phenyl)-piperazin-1-yl]-3-oxo-propyl ester]: the inhibition in vivo at 10 mg/kg in the test with male ICR mouse [1] came out at 44.8%. Further, the change in vivo at 30 mg/kg in the test on male ICR mouse [2] is 11%.

Regarding `COc1ccc(N2CCN(C(=O)CC(OC(N)=O)c3ccc(F)cc3)CC2)cc1OC` (centres unmarked) [Example 7, carbamic acid 3-[4-(3,4-dimethoxy-phenyl)-piperazin-1-yl]-1-(4-fluoro-phenyl)-3-oxo-propyl ester], in the test with male ICR mouse [1], the inhibition in vivo at 10 mg/kg amounted to 40.9%. Further, the change in vivo at 30 mg/kg in the test on male ICR mouse [2] is 14.7%.

Turning to `COc1ccc(N2CCN(C(=O)CC(OC(N)=O)c3ccc(C)cc3)CC2)cc1OC` (centres unmarked) [Example 8, carbamic acid 3-[4-(3,4-dimethoxy-phenyl)-piperazin-1-yl]-3-oxo-1-p-tolyl-propyl ester], the inhibition in vivo at 10 mg/kg in the test with male ICR mouse [1] was 30.1%. Besides, in the test with male ICR mouse [2], the change in vivo at 30 mg/kg was 10.9%.

As to `COc1ccc(N2CCN(C(=O)CC(OC(N)=O)c3ccccc3)CC2)c(OC)c1` (centres unmarked) [Example 9, carbamic acid 3-[4-(2,4-dimethoxy-phenyl)-piperazin-1-yl]-3-oxo-1-phenyl-propyl ester], the inhibition in vivo at 10 mg/kg in the test on male ICR mouse [1] is 33.1%. The change in vivo at 30 mg/kg in the test with male ICR mouse [2] is 16.4%.

For the compound `NC(=O)OC(CC(=O)N1CCN(c2ccc3c(c2)OCO3)CC1)c1ccccc1` (centres unmarked) [Example 14, carbamic acid 3-(4-benzo[1,3]dioxol-5-yl-piperazin-1-yl)-3-oxo-1-phenyl-propyl ester], in the test on male ICR mouse [1], the inhibition in vivo at 10 mg/kg was 64%. Also, the change in vivo at 30 mg/kg in the test on male ICR mouse [2] is 17.8%.

For `COc1ccc(C(CC(=O)N2CCN(c3ccccc3)CC2)OC(N)=O)cc1` (centres unmarked) [Example 15, carbamic acid 1-(4-methoxy-phenyl)-3-oxo-3-(4-phenyl-piperazin-1-yl)-propyl ester], the inhibition in vivo at 10 mg/kg in the test with male ICR mouse [1] is 35.1%. Besides, the change in vivo at 30 mg/kg in the test with male ICR mouse [2] came out at 17.9%.

Regarding `NC(=O)OC(CC(=O)N1CCN(c2ccccn2)CC1)c1ccccc1` (centres unmarked) [Example 24, carbamic acid 3-oxo-1-phenyl-3-(4-pyridin-2-yl-piperazin-1-yl)-propyl ester], in the test on male ICR mouse [1], the inhibition in vivo at 10 mg/kg is 61.2%. For the same compound, the change in vivo at 30 mg/kg in the test on male ICR mouse [2] was 28.1%.

Regarding `NC(=O)OC(CC(=O)N1CCN(c2ncccn2)CC1)c1ccccc1` (centres unmarked) [Example 25, carbamic acid 3-oxo-1-phenyl-3-(4-pyrimidin-2-yl-piperazin-1-yl)-propyl ester], in the test on male ICR mouse [1], the inhibition in vivo at 10 mg/kg was 59.3%. The change in vivo at 30 mg/kg in the test with male ICR mouse [2] came to 15.9%.

For `NC(=O)OC(CC(=O)N1CCN(c2ncc(Cl)cc2Cl)CC1)c1ccccc1` (centres unmarked) [Example 26, carbamic acid 3-[4-(3,5-dichloro-pyridin-2-yl)-piperazin-1-yl]-3-oxo-1-phenyl-propyl ester], in the test on male ICR mouse [1], the inhibition in vivo at 10 mg/kg came to 30.8%. Also, the change in vivo at 30 mg/kg in the test with male ICR mouse [2] came out at 20.6%.

As to `NC(=O)OC(CC(=O)N1CCN(c2ccc(F)c(F)c2)CC1)c1ccccc1` (centres unmarked) [Example 33, carbamic acid 3-[4-(3,4-difluoro-phenyl)-piperazin-1-yl]-3-oxo-1-phenyl-propyl ester], in the test on male ICR mouse [1], the inhibition in vivo at 10 mg/kg was 74.5%. Besides, the change in vivo at 30 mg/kg with male ICR mouse [2] worked out at 43.6%.

`NC(=O)OC(CC(=O)N1CCN(c2ccc(Cl)cc2)CC1)c1ccccc1` (centres unmarked) [Example 38, carbamic acid 3-[4-(4-chloro-phenyl)-piperazin-1-yl]-3-oxo-1-phenyl-propyl ester]: in the test with male ICR mouse [1], the inhibition in vivo at 10 mg/kg was determined as 66.1%. The change in vivo at 30 mg/kg in the test on male ICR mouse [2] is 38.3%.

For the origin of these results see patent US8901116B2, “Method for treating pain, anxiety or depression using carbamoyloxy alkanoyl piperazine compound” (SK Biopharmaceuticals Co., Ltd., priority 2007, dated 2014).
